Patent US20020147187A1, “1,2-diphenyl-1-naphthyl ethene derivatives, analogs and use thereof” (priority 2001, published 2002)

How the values were obtained:
[1] = molecular target: human recombinant estrogen receptor beta (Homo sapiens, UniProt Q92731); experiment: Estrogen receptor beta binding assay ([3H] Estradiol displacement); conditions: displacement of 0.5 nM [3H] Estradiol, 7.5 ng receptor protein, 2 hours at 25° C.; read-out: IC50 Value, Estrogen Receptor Subtype Beta
MCF-7 cells = experiment: MCF-7 cell proliferation assay (estradiol stimulated versus unstimulated, MTT); format: cell-based, human; conditions: estradiol stimulated versus unstimulated MCF-7 cells, FIG. 1
Description: Those skilled in the art will appreciate that several acceptable estrogen receptor-binding assays are known and available for initial screening of the compounds of the present invention. The initial screen chosen for detecting anti-estrogenic/estrogenic activity was a human cell line assay, namely the MCF-7 cell proliferation assay. MCF-7 cells are estrogen-receptor positive (ER+) cancer cells that respond to estradiol stimulation. Anti-estrogenic activity is measured in terms of a test article's ability to inhibit estradiol stimulated proliferation, implying an antagonistic action on the estrogen receptor and estrogenic activity can be inferred from increased proliferation. The following testing procedure was used.
MCF-7 cells were maintained in a RPMI medium, free of phenol red, and supplemented with 5% charcoal-stripped foetal calf serum, hydrocortisone, bovine insulin, penicillin and streptomycin until they reached 70% confluence. […] Cell survival was evaluated after 3-6 days, by replacing the culture media with 150 μl of fresh medium containing 10 mM 4-(2-hydroxyethyl)-1-piperazineethamsulfonic acid buffer (pH 7.4) followed by the addition of 50 μl of 2.5 mg/ml of 3-(4,5-dimethylthiazo-2-yl)-2,5-diphenyltetrazolium bromide (MTT). […] Plates were shaken for 15 minutes and the absorbance was determined at 570 nm with a microplate reader (BIORAD, model 450). […]

[2] = molecular target: T1, human recombinant estrogen receptor alpha (Homo sapiens, UniProt P03372); experiment: Estrogen receptor alpha binding assay ([3H] Estradiol displacement); conditions: IC50 Value, Estrogen Receptor Subtype Alpha, displacement of 0.5 nM [3H] Estradiol, 4.5 ng receptor protein, 2 hours at 25° C.
T1 sequence (P03372 1-595): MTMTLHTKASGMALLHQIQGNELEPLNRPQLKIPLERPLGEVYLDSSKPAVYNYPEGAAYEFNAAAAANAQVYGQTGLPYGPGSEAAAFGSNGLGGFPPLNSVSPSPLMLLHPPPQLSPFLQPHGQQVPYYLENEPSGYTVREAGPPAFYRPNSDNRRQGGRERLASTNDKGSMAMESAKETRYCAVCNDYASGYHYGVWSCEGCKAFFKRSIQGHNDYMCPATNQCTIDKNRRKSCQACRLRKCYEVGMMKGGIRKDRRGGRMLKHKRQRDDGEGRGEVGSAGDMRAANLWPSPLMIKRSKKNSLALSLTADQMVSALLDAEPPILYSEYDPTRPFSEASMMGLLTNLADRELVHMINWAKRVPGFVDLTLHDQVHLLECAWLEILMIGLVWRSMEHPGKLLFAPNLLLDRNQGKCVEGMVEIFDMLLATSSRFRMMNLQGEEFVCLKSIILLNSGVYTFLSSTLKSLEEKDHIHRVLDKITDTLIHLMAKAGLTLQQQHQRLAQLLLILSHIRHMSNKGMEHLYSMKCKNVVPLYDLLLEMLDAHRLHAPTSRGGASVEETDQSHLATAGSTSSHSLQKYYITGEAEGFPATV
Description: The stable expression of these individual receptor subtypes in cells provides a rapid and accurate means of quantifying the direct interaction of a test article with the estrogen binding sites. Briefly, this assay is conducted in 96 well plates where a series of concentrations of the test article are used to displace tritiated estradiol from either estrogen receptor alpha or estrogen receptor beta bearing cell membranes, under equilibrium conditions. […] This measurement is the primary test for mediation of the estrogen receptor and can also be used to measure the relative selectivity of the test article for either the alpha or beta subtype.
The alpha subtype assay measures the binding of [^3H] Estradiol to the human recombinant estrogen receptor. […] Membranes are filtered and washed 3 times, and the filters are counted to determine [^3H] Estradiol specifically bound. […] The measurement of the displaced tritiated estradiol allows the determination of an IC50 value, a direct measure of the test articles' interaction with the estrogen receptor alpha.

Sequence of human recombinant estrogen receptor beta (Q92731 whole entry): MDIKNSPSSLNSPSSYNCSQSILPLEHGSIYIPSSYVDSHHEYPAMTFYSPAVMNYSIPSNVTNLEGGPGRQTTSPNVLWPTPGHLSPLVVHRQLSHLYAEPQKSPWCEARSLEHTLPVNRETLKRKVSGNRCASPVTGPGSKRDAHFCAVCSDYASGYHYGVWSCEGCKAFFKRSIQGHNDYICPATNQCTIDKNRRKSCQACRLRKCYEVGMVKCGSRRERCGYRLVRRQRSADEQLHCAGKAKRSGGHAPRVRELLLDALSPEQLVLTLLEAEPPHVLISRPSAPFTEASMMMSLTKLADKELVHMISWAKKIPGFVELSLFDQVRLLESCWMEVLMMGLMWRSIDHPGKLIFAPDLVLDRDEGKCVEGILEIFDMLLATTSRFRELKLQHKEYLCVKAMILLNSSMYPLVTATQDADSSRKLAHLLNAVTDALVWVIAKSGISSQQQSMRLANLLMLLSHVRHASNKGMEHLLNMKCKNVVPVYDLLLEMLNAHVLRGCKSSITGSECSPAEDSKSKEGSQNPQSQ

IC50 [1]: 75 nM | IC50 [2]: 5.54 nM
SMILES: C/C(=C(/c1ccc(O)cc1)c1cccc2cc(O)ccc12)c1ccc(OCCN2CCCC2)cc1 [Formula II, (E)-5-[1-(4-hydroxyphenyl)-2-[4-(2-pyrrolidin-1-yl-ethoxy)-phenyl]-propenyl]-naphthalen-2-ol]
effect on estradiol stimulated proliferation of MCF-7 cells (shift in dose-response curve) (MCF-7 cells): antagonizing the effect of estradiol
